Test results as given in article PMC6155239, “Targeting PFKFB3 radiosensitizes cancer cells and suppresses homologous recombination” (Nature Communications, 2018).

Tests used:
[1] = target: PFKFB3 (Homo sapiens, UniProt Q16875); experiment: Cellular thermal shift assay (CETSA) in U2OS cells; assay type: cell-based; conditions: 10 µM
Experimental: U2OS cells in exponential growth rate were treated with indicated inhibitors at a concentration of 10 μM or DMSO for 6, 24, or 72 h and then harvested using trypsin, upon detachment trypsinization was inhibited by addition of cell media and cells spun down at 200 × g for 10 min at 4 °C. The pellet was resuspended in TBS (50 mM Tris–HCl (pH 7.5) and 150 mM NaCl) supplemented with protease inhibitors (Roche), cells were lysed by a freeze–thaw circle three times at −80 °C for 3 min and then 37 °C for 3 min. Debris was removed by centrifugation at 16,000 × g for 20 min at 4 °C, cell lysates were aliquoted and heated to indicated temperatures for 3 min. Insoluble proteins were then removed by centrifugation at 16,000 × g at 4 °C for 20 min, supernatant was transferred to new tubes and protein concentration was determined using BCA assay (Pierce). Western blot was performed according to standard procedures.

[2] = system: U2OS cells; experiment: EdU incorporation in G2/M phase upon IR, flow cytometry; assay type: cell-based; conditions: 10 μM 6 h prior to IR 6 Gy
[3] = system: U2OS cells; experiment: EdU labeling (DNA synthesis); assay type: cell-based; conditions: absence of IR
Experimental: U2OS cells were seeded on sterilized slides and treated with 10 or 30 μM of 757 for 6 h, or 2 mM of hydroxyurea (HU) for 3 h (DMSO was used as control vehicle). Last 40 min of treatment, 10 μM of the thymidine analogue 5-ethynyl-2′-deoxyuridine (EdU) (Sigma Aldrich, catalog no. 1T511285) was added; cells were washed with PBS and then fixed with paraformaldehyde 4% and sucrose 2%. For the detection of incorporated EdU, the Click IT reaction was performed in accordance with the supplier’s recommendations (Life Technologies/ThermoFisher Scientific). Images were acquired with a Zeiss LSM 780 microscope using a 40× oil immersion lens and processed in ImageJ and CellProfiler (version 2.2.0).

[4] = system: U2OS DR-GFP cells; experiment: DR-GFP (HR) assay; assay type: cell-based; conditions: DMSO = 100% activity
Experimental: 5 × 10^4 U2OS (DR-GFP) cells were seeded into 12-well plates, 24 h later cells were treated with the indicated siRNAs or inhibitors and, 24 h later, transfected with 150 ng of an I-SceI vector using JetPEI or JetPRIME (Polyplus transfections). The next day, the medium was changed; 24 h after this, cells were harvested by trypsinization and washed with PBS, and the GFP signal was measured by flow cytometry on a FACS Navios (as described above). The frequency of repair in cells treated with inhibitors or transfected with the various siRNAs was calculated relative to cells treated with DMSO or transfected with control siRNA.

[5] = system: U2OS cells; experiment: IR-induced RAD51 / RPA32 foci, confocal; assay type: cell-based; conditions: in combination with IR
Experimental: Cells were grown on sterilized coverslips and fixed with 4% paraformaldehyde (PFA) (Santa Cruz) and 2% sucrose (Sigma Aldrich) for 15 min at room temperature. They were then permeabilized with 0.2% NP-40 (Thermo Scientific) for 10 min at room temperature followed by 30 min of blocking in blocking buffer (2 or 3% BSA, 5% glycerol, 0.1% Tween 20 (Sigma Aldrich)). Coverslips were subsequently incubated for 1, 2, or 24 h in primary antibody and 40 min in secondary antibody diluted in blocking buffer, DNA was stained with DAPI for 10 min. The coverslips were mounted with Prolonged Gold mounting medium (Invitrogen). Images were acquired with a Zeiss LSM 780 microscope using a 40× or 63× oil immersion lens and processed in ImageJ and CellProfiler.
To visualize PFKFB3, RPA32, RAD51, BRCA1, 53BP1, and RRM2 IRIF, the cells were first washed with PBS and then incubated for 5 min at room temperature with cytoskeleton (CSK) buffer containing 10 mM PIPES pH 7.0 (Sigma Aldrich), 100 mM NaCl (EMD Millipore), 300 mM sucrose (Sigma Aldrich), 3 mM MgCl2 (Sigma Aldrich), and 0.7% Triton X-100 (Sigma Aldrich). After these treatments, the cells were washed once again with PBS and then fixed in 4% PFA with 2% sucrose.

[6] = target: T1, ABL1-phosphorylated (Homo sapiens, UniProt P00519); experiment: KINOMEscan; assay type: binding; conditions: 2000 nM; read-out: Percent Control
T1 construct: purchased DiscoverX (Eurofins) KINOMEscan / scanEDGE, inferred from the naming style

[7] = target: T2, AURKB (Homo sapiens, UniProt Q96GD4); experiment: KINOMEscan; assay type: binding; conditions: 2000 nM; read-out: Percent Control
T2 construct: purchased DiscoverX (Eurofins) KINOMEscan / scanEDGE, inferred from the naming style

[8] = target: T3, ERBB2 (Homo sapiens, UniProt P04626); experiment: KINOMEscan; assay type: binding; conditions: 2000 nM; read-out: Percent Control
T3 construct: purchased DiscoverX (Eurofins) KINOMEscan / scanEDGE, inferred from the naming style

[9] = target: T4, ERK1 (Homo sapiens, UniProt P27361); experiment: KINOMEscan; assay type: binding; conditions: 2000 nM; read-out: Percent Control
T4 construct: purchased DiscoverX (Eurofins) KINOMEscan / scanEDGE, inferred from the naming style

[10] = target: T5, CDK9 (Homo sapiens, UniProt P50750); experiment: KINOMEscan; assay type: binding; conditions: 2000 nM; read-out: Percent Control
T5 construct: purchased DiscoverX (Eurofins) KINOMEscan / scanEDGE, inferred from the naming style

[11] = target: T6, BRAF (Homo sapiens, UniProt P15056); experiment: KINOMEscan; assay type: binding; conditions: 2000 nM; read-out: Percent Control
T6 construct: purchased DiscoverX (Eurofins) KINOMEscan / scanEDGE, inferred from the naming style

[12] = target: T7, BMPR2 (Homo sapiens, UniProt Q13873); experiment: KINOMEscan; assay type: binding; conditions: 2000 nM; read-out: Percent Control
T7 construct: purchased DiscoverX (Eurofins) KINOMEscan / scanEDGE, inferred from the naming style

[13] = target: T8, DCAMKL1 (Homo sapiens, UniProt O15075); experiment: KINOMEscan; assay type: binding; conditions: 2000 nM; read-out: Percent Control
T8 construct: purchased DiscoverX (Eurofins) KINOMEscan / scanEDGE, inferred from the naming style

[14] = target: T9, CDK3 (Homo sapiens, UniProt Q00526); experiment: KINOMEscan; assay type: binding; conditions: 2000 nM; read-out: Percent Control
T9 construct: purchased DiscoverX (Eurofins) KINOMEscan / scanEDGE, inferred from the naming style

[15] = target: T10, EGFR (Homo sapiens, UniProt P00533); experiment: KINOMEscan; assay type: binding; conditions: 2000 nM; read-out: Percent Control
T10 construct: purchased DiscoverX (Eurofins) KINOMEscan / scanEDGE, inferred from the naming style

[16] = target: T11, ALK (Homo sapiens, UniProt Q9UM73); experiment: KINOMEscan; assay type: binding; conditions: 2000 nM; read-out: Percent Control
T11 construct: purchased DiscoverX (Eurofins) KINOMEscan / scanEDGE, inferred from the naming style

[17] = target: T12, AURKA (Homo sapiens, UniProt O14965); experiment: KINOMEscan; assay type: binding; conditions: 2000 nM; read-out: Percent Control
T12 construct: purchased DiscoverX (Eurofins) KINOMEscan / scanEDGE, inferred from the naming style

[18] = target: T13, AKT1 (Homo sapiens, UniProt P31749); experiment: KINOMEscan; assay type: binding; conditions: 2000 nM; read-out: Percent Control
T13 construct: purchased DiscoverX (Eurofins) KINOMEscan / scanEDGE, inferred from the naming style

[19] = target: T14, ERBB4 (Homo sapiens, UniProt Q15303); experiment: KINOMEscan; assay type: binding; conditions: 2000 nM; read-out: Percent Control
T14 construct: purchased DiscoverX (Eurofins) KINOMEscan / scanEDGE, inferred from the naming style

[20] = target: T15, IGF1R (Homo sapiens, UniProt P08069); experiment: KINOMEscan; assay type: binding; conditions: 2000 nM; read-out: Percent Control
T15 construct: purchased DiscoverX (Eurofins) KINOMEscan / scanEDGE, inferred from the naming style

[21] = target: T16, CSF1R (Homo sapiens, UniProt P07333); experiment: KINOMEscan; assay type: binding; conditions: 2000 nM; read-out: Percent Control
T16 construct: purchased DiscoverX (Eurofins) KINOMEscan / scanEDGE, inferred from the naming style

[22] = target: T17, AXL (Homo sapiens, UniProt P30530); experiment: KINOMEscan; assay type: binding; conditions: 2000 nM; read-out: Percent Control
T17 construct: purchased DiscoverX (Eurofins) KINOMEscan / scanEDGE, inferred from the naming style

[23] = target: T18, GSK3B (Homo sapiens, UniProt P49841); experiment: KINOMEscan; assay type: binding; conditions: 2000 nM; read-out: Percent Control
T18 construct: purchased DiscoverX (Eurofins) KINOMEscan / scanEDGE, inferred from the naming style

T1 sequence (P00519 whole entry): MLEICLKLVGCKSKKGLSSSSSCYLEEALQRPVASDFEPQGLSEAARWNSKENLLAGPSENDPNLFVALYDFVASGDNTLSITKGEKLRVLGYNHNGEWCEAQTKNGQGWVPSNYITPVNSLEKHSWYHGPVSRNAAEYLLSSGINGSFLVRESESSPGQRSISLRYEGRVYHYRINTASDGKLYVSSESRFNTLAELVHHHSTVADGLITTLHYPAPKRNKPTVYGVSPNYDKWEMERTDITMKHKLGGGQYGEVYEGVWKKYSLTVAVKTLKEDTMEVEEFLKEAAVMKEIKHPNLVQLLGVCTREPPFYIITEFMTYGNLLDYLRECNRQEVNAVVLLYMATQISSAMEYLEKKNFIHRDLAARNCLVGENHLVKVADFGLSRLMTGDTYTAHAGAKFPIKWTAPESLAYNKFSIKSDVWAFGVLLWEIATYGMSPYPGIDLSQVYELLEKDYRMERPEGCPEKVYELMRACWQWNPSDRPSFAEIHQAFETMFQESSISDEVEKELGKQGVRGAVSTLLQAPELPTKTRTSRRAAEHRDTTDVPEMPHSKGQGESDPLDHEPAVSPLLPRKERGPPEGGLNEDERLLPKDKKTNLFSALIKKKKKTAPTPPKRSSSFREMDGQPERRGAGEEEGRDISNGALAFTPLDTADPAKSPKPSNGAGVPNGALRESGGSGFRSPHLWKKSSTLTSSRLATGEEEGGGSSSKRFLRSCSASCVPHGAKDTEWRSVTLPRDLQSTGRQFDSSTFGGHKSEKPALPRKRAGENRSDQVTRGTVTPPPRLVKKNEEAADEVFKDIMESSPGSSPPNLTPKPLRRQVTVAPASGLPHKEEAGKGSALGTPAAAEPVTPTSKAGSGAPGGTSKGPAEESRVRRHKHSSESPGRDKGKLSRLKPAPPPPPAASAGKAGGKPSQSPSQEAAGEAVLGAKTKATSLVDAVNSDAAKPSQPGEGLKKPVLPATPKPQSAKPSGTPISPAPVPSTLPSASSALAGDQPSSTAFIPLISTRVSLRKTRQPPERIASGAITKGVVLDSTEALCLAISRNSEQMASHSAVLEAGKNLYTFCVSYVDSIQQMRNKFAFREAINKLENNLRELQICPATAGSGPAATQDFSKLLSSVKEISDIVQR
T2 sequence (Q96GD4 whole entry): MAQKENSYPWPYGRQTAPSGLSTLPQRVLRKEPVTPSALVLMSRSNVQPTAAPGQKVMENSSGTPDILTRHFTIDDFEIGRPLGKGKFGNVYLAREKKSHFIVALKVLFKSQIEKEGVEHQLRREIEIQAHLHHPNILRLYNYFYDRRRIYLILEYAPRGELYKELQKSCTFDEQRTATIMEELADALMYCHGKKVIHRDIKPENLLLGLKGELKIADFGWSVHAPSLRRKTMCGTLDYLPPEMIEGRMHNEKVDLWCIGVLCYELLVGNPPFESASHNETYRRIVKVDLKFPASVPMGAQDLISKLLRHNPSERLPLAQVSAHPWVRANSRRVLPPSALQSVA
T6 sequence (P15056 whole entry): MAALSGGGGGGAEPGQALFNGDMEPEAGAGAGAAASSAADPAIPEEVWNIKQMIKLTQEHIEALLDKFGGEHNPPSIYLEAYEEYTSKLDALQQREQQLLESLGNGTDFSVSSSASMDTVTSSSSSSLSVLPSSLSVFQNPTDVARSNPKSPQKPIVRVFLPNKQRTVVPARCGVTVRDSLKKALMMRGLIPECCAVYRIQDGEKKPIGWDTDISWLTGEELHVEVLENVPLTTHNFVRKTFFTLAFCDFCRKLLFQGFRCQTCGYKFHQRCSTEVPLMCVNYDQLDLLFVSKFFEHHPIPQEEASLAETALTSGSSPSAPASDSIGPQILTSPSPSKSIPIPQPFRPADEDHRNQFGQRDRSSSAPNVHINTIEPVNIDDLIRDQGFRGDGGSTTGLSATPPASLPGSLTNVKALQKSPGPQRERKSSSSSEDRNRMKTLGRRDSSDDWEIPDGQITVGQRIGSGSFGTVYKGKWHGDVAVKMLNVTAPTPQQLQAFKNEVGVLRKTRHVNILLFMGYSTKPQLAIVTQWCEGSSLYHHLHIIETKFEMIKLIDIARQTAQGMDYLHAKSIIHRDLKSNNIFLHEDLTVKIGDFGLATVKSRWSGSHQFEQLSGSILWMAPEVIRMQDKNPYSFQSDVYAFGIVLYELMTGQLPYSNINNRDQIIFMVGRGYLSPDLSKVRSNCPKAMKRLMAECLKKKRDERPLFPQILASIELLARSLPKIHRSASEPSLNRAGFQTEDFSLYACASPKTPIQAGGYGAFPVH
T12 sequence (O14965 whole entry): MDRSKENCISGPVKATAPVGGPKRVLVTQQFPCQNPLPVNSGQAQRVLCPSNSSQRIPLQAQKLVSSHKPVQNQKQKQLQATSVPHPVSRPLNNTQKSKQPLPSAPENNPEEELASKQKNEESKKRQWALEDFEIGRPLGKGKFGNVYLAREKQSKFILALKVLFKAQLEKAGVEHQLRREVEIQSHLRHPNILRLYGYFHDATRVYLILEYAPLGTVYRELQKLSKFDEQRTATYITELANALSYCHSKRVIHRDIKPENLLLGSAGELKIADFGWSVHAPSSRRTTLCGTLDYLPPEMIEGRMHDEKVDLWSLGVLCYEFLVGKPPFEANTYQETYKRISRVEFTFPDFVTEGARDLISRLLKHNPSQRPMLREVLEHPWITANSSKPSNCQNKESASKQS
T13 sequence (P31749 whole entry): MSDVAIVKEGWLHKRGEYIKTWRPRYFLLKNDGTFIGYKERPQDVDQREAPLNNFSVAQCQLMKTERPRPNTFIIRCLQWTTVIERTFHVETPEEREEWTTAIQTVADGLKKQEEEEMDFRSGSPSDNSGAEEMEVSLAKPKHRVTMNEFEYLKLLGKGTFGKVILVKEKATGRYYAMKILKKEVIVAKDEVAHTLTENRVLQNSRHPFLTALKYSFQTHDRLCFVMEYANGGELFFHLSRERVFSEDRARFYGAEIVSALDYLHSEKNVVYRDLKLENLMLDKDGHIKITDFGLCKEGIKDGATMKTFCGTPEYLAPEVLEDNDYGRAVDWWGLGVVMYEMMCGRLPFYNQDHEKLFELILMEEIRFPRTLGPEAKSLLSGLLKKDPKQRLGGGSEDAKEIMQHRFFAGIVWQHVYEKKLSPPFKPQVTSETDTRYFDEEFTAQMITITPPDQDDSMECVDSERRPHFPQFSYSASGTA
T11 sequence (Q9UM73 19-1620): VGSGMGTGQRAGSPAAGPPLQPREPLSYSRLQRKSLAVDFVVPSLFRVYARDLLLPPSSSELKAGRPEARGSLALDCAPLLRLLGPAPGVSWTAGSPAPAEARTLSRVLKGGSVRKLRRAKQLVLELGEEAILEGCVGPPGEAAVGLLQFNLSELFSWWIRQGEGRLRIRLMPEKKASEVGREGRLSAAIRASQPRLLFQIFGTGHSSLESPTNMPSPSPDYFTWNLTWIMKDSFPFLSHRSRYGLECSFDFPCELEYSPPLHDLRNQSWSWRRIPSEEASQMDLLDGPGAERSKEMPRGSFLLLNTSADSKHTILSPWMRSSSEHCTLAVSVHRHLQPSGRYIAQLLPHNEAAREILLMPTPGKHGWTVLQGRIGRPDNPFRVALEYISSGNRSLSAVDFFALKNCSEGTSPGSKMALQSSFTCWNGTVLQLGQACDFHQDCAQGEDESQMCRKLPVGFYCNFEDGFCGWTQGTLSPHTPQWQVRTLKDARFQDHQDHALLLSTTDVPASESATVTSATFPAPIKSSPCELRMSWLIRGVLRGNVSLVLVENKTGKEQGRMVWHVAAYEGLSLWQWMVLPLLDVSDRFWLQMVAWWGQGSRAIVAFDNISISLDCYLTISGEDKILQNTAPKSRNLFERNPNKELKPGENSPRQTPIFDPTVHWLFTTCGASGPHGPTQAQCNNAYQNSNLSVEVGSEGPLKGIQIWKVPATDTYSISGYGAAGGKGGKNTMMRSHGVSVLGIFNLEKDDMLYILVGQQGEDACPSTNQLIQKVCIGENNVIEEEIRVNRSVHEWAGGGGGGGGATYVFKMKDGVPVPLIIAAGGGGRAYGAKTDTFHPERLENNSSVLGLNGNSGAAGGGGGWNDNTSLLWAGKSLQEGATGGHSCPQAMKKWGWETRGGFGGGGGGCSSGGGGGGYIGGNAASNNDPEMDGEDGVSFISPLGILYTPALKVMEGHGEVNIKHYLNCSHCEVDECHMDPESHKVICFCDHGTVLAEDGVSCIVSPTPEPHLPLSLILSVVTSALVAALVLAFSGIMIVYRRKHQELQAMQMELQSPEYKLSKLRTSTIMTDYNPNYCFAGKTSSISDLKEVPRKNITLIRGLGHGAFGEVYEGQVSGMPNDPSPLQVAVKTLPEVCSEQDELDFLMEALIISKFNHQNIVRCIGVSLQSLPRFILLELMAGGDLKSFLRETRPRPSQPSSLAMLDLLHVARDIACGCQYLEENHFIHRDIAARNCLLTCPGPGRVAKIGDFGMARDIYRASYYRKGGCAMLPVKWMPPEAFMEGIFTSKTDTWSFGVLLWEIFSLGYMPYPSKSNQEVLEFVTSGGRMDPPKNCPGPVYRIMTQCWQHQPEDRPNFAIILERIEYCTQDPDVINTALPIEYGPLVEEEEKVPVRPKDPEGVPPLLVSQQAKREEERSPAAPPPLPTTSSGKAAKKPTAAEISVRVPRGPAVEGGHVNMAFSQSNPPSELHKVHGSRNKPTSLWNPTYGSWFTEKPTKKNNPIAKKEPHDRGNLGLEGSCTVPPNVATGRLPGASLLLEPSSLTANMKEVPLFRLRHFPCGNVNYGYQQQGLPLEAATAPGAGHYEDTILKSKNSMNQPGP
T9 sequence (Q00526 whole entry): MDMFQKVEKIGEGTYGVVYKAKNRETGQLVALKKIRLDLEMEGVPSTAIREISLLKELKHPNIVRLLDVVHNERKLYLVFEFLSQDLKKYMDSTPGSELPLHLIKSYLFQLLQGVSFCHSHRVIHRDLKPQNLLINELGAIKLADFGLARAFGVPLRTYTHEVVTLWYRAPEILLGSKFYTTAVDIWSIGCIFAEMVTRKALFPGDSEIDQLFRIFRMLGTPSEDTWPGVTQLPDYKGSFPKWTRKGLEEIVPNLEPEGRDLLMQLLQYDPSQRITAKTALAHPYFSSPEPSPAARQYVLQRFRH

O=C(OCCO)c1ccc(NS(=O)(=O)c2cccc(-c3cc(F)ccc3O)c2)cc1O [KAN0438757, 2-Hydroxyethyl-4-{[(5′-fluoro-2′-hydroxybiphenyl-3-yl)sulfonyl]amino}-2-hydroxybenzoate]
intracellular target engagement of PFKFB3 (CETSA) [1]: demonstrated intracellular target engagement
IR-induced increase in EdU-positive cell population in G2/M phase (in words) [2]: impaired
EdU intensity per cell in EdU-positive population (in words) [3]: decreased EdU intensity per cell
HR activity as compared to vehicle-treated cells [4]: 10%
IR-induced recruitment of RPA32 and RAD51 into repair foci (in words) [5]: disrupted

O=C(O)c1ccc(NS(=O)(=O)c2cccc(-c3cc(F)ccc3O)c2)cc1O [KAN0438241, 4-{[(5′-Fluoro-2′-hydroxybiphenyl-3-yl)sulfonyl]amino}-2-hydroxybenzoic acid]
remaining binding at 2 µM [6]: 96%
remaining binding at 2 µM [7]: 92%
remaining binding at 2 µM [8]: 92%
remaining binding at 2 µM [9]: 99%
remaining binding at 2 µM [10]: 100%
remaining binding at 2 µM [11]: 100%
remaining binding at 2 µM [12]: 88%
remaining binding at 2 µM [13]: 95%
remaining binding at 2 µM [14]: 97%
remaining binding at 2 µM [15]: 93%
remaining binding at 2 µM [16]: 100%
remaining binding at 2 µM [17]: 97%
remaining binding at 2 µM [18]: 100%
remaining binding at 2 µM [19]: 96%
remaining binding at 2 µM [20]: 100%
remaining binding at 2 µM [21]: 90%
remaining binding at 2 µM [22]: 100%
remaining binding at 2 µM [23]: 91%
